Patent publication US9428506B2, “Substituted pyrido[3′,4′:4,5]pyrrolo[1,2,3-de]quinoxalines for the treatment of nervous system disorders” (INTRA-CELLULAR THERAPIES, INC., priority 2012, dated 2016)

Columns and labels:
5-HT2A = 5-HT2A (Homo sapiens, UniProt P28223); test: Receptor binding activity, 5-HT2A; conditions: binding to 5-HT2A, methods of WO/2009/145900
Procedure: (§1) Binding to 5HT2A, D2 and SERT is assessed, using the methods described in WO/2009/145900. The compounds of Examples 1 and 2 are found to have potent binding to 5-HT2A, SERT and D2, with affinity constants in the sub-micromolar range: […]

D2 = D2 (Homo sapiens, UniProt P14416); test: Receptor binding activity, D2; conditions: binding to D2, methods of WO/2009/145900
Sequence of D2 (P14416 whole entry): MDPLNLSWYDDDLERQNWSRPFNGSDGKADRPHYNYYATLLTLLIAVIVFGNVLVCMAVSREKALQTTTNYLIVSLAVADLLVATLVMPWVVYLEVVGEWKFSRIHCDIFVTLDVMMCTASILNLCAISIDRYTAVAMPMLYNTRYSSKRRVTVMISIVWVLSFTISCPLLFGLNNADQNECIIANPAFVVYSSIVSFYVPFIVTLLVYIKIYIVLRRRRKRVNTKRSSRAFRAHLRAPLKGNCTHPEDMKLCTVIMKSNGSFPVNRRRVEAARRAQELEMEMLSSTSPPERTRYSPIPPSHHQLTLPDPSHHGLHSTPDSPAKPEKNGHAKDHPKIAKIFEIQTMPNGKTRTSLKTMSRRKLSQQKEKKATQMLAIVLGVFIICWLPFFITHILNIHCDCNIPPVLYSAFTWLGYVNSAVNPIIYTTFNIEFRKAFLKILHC
Procedure: as §1

SERT = SERT (Homo sapiens, UniProt P31645); test: Receptor binding activity, SERT; conditions: binding to SERT, methods of WO/2009/145900
Sequence of SERT (P31645 whole entry, species assumed): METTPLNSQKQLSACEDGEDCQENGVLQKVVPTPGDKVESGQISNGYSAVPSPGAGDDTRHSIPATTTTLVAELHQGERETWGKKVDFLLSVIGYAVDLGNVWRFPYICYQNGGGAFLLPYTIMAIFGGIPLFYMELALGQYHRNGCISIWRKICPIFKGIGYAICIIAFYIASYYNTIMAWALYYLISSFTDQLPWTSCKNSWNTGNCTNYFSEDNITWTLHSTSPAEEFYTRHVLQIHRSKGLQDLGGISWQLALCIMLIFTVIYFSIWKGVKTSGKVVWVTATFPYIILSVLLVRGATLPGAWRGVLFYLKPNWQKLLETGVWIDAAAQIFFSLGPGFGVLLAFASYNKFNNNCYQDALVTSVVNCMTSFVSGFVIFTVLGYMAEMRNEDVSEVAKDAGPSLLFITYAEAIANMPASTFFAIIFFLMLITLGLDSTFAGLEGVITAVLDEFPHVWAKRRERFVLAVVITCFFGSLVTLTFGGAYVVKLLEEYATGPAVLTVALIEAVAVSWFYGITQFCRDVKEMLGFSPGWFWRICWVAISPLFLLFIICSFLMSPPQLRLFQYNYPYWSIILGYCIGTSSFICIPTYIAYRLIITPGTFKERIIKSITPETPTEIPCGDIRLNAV
Procedure: as §1

Sequence of 5-HT2A (P28223 whole entry, species assumed): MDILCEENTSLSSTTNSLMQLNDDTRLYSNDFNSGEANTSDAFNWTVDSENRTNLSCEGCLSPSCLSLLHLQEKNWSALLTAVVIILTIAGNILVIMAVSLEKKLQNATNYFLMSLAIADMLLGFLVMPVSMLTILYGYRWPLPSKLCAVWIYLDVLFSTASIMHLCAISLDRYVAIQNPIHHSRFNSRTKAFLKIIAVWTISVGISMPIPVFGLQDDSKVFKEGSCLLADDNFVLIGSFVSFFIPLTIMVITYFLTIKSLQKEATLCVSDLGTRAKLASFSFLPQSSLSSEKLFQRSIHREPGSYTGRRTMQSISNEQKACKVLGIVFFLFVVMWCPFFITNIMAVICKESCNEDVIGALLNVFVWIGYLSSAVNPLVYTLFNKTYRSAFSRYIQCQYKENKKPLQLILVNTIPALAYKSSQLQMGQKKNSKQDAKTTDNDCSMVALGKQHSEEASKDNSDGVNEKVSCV

Row | Ki (5-HT2A) [nM] | Ki (D2) [nM] | Ki (SERT) [nM] | SMILES
1 | 350 | 740 | 520 | CN1CCN2c3c(cccc31)[C@@H]1CN(CCCC(C)(O)c3ccc(F)cc3)CC[C@@H]12 (stereo partly drawn) [Ex. 1, 2-(4-Fluoro-phenyl)-5-((6bR,10aS)-3-methyl-2,3,6b,9,10,10a-hexahydro-1H,7H-pyrido[3′,4′:4,5]pyrrolo[1,2,3-de]quinoxalin-8-yl)-pentan-2-ol]
2 | 96 | 810 | 300 | COC(CCCN1CC[C@H]2[C@@H](C1)c1cccc3c1N2CCN3C)c1ccc(F)cc1 (stereo partly drawn) [Ex. 2, (6bR,10aS)-8-[4-(4-Fluoro-phenyl)-4-methoxy-butyl]-3-methyl-2,3,6b,7,8,9,10,10a-octahydro-1H-pyrido[3′,4′:4,5]pyrrolo[1,2,3-de]quinoxaline]
